In patent US10577363B2, “Substituted piperidine compounds” (EPIZYME, INC., priority 2014, dated 2020) one finds IC50 data, which are given here for 19 molecules.

Test [1] deals with T1, SMYD3 (Homo sapiens (Human), UniProt Q9H7B4). Briefly: SMYD3 biochemical assay (SPA, 3H-SAM methylation of MEKK2 protein substrate). A digest of the protocol:
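Full-length native human SMYD3 (E. coli-expressed, tags removed) preincubated with compounds 30 min at room temperature, then reaction started with 3H-SAM and GST-tagged MEKK2 protein in 25 mM Tris-Cl pH 8.0, 1 mM TCEP, 0.005% BSG, 0.005% Tween 20. Quenched with unlabelled SAM (100 uM final); 3H-MEKK2 counted by SPA.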

Test [2] deals with T1, SMYD3. Kind of test: SMYD3 cell assay (Trimethyl-MEKK2 In-Cell Western in 293T/17 cells). Type of test: cell-based. The text has this: Trimethyl-MEKK2-in-Cell Western Assay
MEM/Glutamax medium, Optimem Reduced Serum medium, penicillin-streptomycin, 0.05% trypsin and 1×D-PBS were purchased from Life Technologies, Grand Island, N.Y., USA. PBS-10× was purchased from Ambion, Life Technologies, Grand Island, N.Y., USA. PBS with Tween 20 (PBST (10×)) was purchased from KPL, Gaithersburg, Md., USA. Tet System FBS-approved FBS US Source was purchased from Clontech, Mountain View, Calif., USA. Odyssey blocking buffer, 800CW goat anti-rabbit IgG (H+L) antibody, 680CW Goat anti-mouse IgG (H+L) and Licor Odyssey infrared scanner were purchased from Licor Biosciences, Lincoln, Nebr., USA. Tri-methyl-Lysine [A260]-MEKK2 antibody, MEKK2 and SMYD3 plasmids were made at Epizyme. Anti-flag monoclonal mouse antibody was purchased from Sigma, St. Louis, Mo., USA. Methanol was purchased from VWR, Franklin, Mass., USA. 10% Tween 20 was purchased from KPL, Inc., Gaithersburg, Md., USA. Fugene was purchased from Promega, Madison, Wis., USA. The Biotek ELx405 was purchased from BioTek, Winooski, Vt., USA. The multidrop combi was purchased from Thermo Scientific, Waltham, Mass., USA.
Cell Treatment, in Cell Western (ICW) for Detection of Trimethyl-Lysine-MEKK2 and MEKK2.
Plasmids were prepared for delivery to cells by first mixing 1350 μL Opti-MEM with Fugene (81 μL) in a sterile Eppendorf and incubated for five minutes at room temperature (RT). […] Entire volume of Opti-MEM/Fugene mixture was then added to a microfuge tube containing DNA plasmid, mixed and then incubated×15 minutes at RT. […] Medium was then removed, and cells were washed once with PBS in the flask. Trypsin 0.05% (3 mL) was added and cells incubated for three minutes. Room temperature MEM+10% Tet system FBS was added and cells were mixed gently, and counted using the Vi-cell. Cells were seeded at 100,000 cells/mL in 50 μL MEM/10% Tet FBS/Pen/Strep to a 384 well black/clear poly-D-lysine coated plate containing test agent diluted in DMSO. The final top concentration of test compound was 40 μM. […] Plates were incubated×30 minutes at RT in low-airflow area, followed by incubation at 37° C. under 5% CO2 for 24 hours. Medium was aspirated from all wells of assay plates prior to fixation and permeabilization with ice cold (−20° C.) methanol (90 μL/well) for ten minutes. Plates were rinsed with PBS three times on BioTek ELx405. PBS was removed with a final aspiration, and Odyssey blocking buffer (50 μL/well) was added to each well and incubated for one hour at RT. Primary antibody solution was prepared (anti-trimethyl-MEKK2 at 1:600 dilution plus mouse anti-flag antibody at 1:10,000 dilution in diluent (Odyssey Blocking buffer+0.1% Tween 20)) and 20 μL per well was dispensed using the Multidrop Combi. Assay plates were then sealed with foil, and incubated overnight at 4° C. Plates were washed five times with PBS-Tween (1×) on Biotek ELx405 and blotted on paper towel to remove excess reagent.
First, the ratio for each well was determined by:
Each plate included fourteen control wells of DMSO only treatment (Minimum Inhibition) as well as fourteen control wells for maximum inhibition (Background). The average of the ratio values for each control type was calculated and used to determine the percent inhibition for each test well in the plate. Reference compound was serially diluted two-fold in DMSO for a total of nine test concentrations, beginning at 40 μM.
Percent inhibition was calculated (below).
Non-linear regression curves were generated to calculate the IC50 and dose-response relationship using triplicate wells per concentration of compound.

[3] abbreviates: read-out: SMYD3 Biochem IC50 (μM)*.
[4] abbreviates: Table 2A, read-out: SMYD3 Biochem IC50.
Where [5] appears, read: Table 2A, read-out: SMYD3 Cell IC50.
The mark [6] stands for this setting: read-out: SMYD3 Cell IC50 (μM)*.

Structures are written as SMILES. Where a name gives a salt, the structure may show the parent alone.

T1 sequence (Q9H7B4 whole entry): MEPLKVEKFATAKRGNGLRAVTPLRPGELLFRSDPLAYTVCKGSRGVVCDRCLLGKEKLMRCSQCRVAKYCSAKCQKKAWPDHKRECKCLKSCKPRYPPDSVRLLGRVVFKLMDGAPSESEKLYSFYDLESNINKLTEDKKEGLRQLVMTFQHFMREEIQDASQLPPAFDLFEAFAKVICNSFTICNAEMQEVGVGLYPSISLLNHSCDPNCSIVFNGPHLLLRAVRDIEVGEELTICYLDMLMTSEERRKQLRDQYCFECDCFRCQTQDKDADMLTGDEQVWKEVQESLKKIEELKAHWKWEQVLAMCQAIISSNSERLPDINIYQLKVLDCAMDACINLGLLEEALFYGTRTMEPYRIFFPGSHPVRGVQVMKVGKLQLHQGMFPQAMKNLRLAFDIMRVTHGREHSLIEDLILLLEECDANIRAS

For `NCCCS(=O)(=O)N1[C@@H]2CC[C@H]1C[C@@H](NC(=O)c1cc(C3CC3)on1)C2` [Cpd. No. 485, N-((1S,3r,5R)-8-(3-aminopropylsulfonyl)-8-aza-bicyclo[3.2.1]octan-3-yl)-5-cyclopropylisoxazole-3-carboxamide], the IC50 (commonly the concentration at which inhibition is half-maximal) turned out to be 0.00507 µM at SMYD3 [1] (setting [3]) and 0.129 µM on SMYD3 [2] (293T/17 cells, read-out: SMYD3 Cell IC50 (μM)*).

As for `C[C@H]1C[C@@H](NC(=O)c2cc(C3CC3)on2)CCN1S(=O)(=O)CCCNCc1ccccc1` [Cpd. No. 500, N-((2S,4S)-1-(3-(benzylamino)propylsulfonyl)-2-methylpiperidin-4-yl)-5-cyclopropylisoxazole-3-carboxamide], the IC50 amounted to 0.00813 µM at SMYD3 [1] (Table 1A, IC50 values are an average of n = 1 to n = 50, read-out: SMYD3 Biochem IC50) and 0.106 µM on SMYD3 [2] (Table 1A, IC50 values are an average of n = 1 to n = 50, read-out: SMYD3 Cell IC50).

Regarding `O=C(N[C@H]1C[C@H]2CC[C@@H](C1)N2S(=O)(=O)CC1CCN(CCCC(F)(F)F)CC1)c1cc(C2CC2)on1` [Cpd. No. 528, 5-cyclopropyl-N-[(1R,3r,5S)-8-([[1-(4,4,4-trifluorobutyl)piperidin-4-yl]methane]sulfonyl)-8-azabicyclo[3.2.1]octan-3-yl]-1,2-oxazole-3-carboxamide], the IC50 at SMYD3 [1] (setting [4]) amounted to 0.0006 µM; on SMYD3 [2] (setting [5]), 0.0231 µM.

Turning to `C[C@H]1C[C@@H](NC(=O)c2cc(C3CC3)on2)CCN1S(=O)(=O)N1CCC(N)CC1` [Cpd. No. 529, N-((2S,4S)-1-(4-aminopiperidin-1-ylsulfonyl)-2-methylpiperidin-4-yl)-5-cyclopropylisoxazole-3-carboxamide trifluoroacetic acid], the IC50 on SMYD3 [1] (setting [4]) worked out at 0.0008 µM; on SMYD3 [2] (setting [5]), 0.0152 µM.

On to `NC1CCN(S(=O)(=O)N2[C@@H]3CC[C@H]2C[C@@H](NC(=O)c2cc(C4CC4)on2)C3)CC1` [Cpd. No. 532, N-((1R,3r,5S)-8-(4-aminopiperidin-1-ylsulfonyl)-8-aza-bicyclo[3.2.1]octan-3-yl)-5-cyclopropylisoxazole-3-carboxamide hydrochloride], for which the half-inhibitory concentration (IC50) at SMYD3 [1] (setting [4]) was 0.0009 µM; on SMYD3 [2] (setting [5]), 0.0214 µM.

As for `C[C@H]1C[C@@H](NC(=O)c2cc(C3CC3)on2)CCN1S(=O)(=O)c1ccc(C(C)(C)N)cc1` [Cpd. No. 541, N-((2S,4S)-1-(4-(2-aminopropan-2-yl)phenylsulfonyl)-2-methylpiperidin-4-yl)-5-cyclopropylisoxazole-3-carboxamide], the IC50 is 0.0014 µM at SMYD3 [1] (setting [4]) and 0.0259 µM on SMYD3 [2] (setting [5]).

Turning to `O=C(N[C@H]1C[C@H]2CC[C@@H](C1)N2S(=O)(=O)CC1CCNCC1)c1cc(C2CC2)on1` [Cpd. No. 543, 5-cyclopropyl-N-((1R,3r,5S)-8-(piperidin-4-ylmethylsulfonyl)-8-aza-bicyclo [3.2.1]octan-3-yl) isoxazole-3-carboxamide], the results for the IC50 on SMYD3 [1] (setting [4]) and at SMYD3 [2] (setting [5]) were 0.0018 µM and 0.0445 µM, respectively.

Consider `O=C(N[C@H]1C[C@H]2CC[C@@H](C1)N2S(=O)(=O)N1CC2(CCNCC2)C1)c1cc(C2CC2)on1` [Cpd. No. 559, N-((1R,3r,5S)-8-(2,7-diazaspiro[3.5]nonan-2-ylsulfonyl)-8-azabicyclo[3.2.1]octan-3-yl)-5-cyclopropylisoxazole-3-carboxamide 2,2,2-trifluoroacetate], for which the IC50 was determined as 0.0047 µM at SMYD3 [1] (setting [4]) and 0.0319 µM at SMYD3 [2] (setting [5]).

As for `CCc1cc(C(=O)N[C@H]2C[C@H]3CC[C@@H](C2)N3S(=O)(=O)CC2CCNCC2)no1` [Cpd. No. 562, 5-ethyl-N-((1R,3r,5S)-8-(piperidin-4-ylmethylsulfonyl)-8-aza-bicyclo[3.2.1]octan-3-yl)isoxazole-3-carboxamide], the IC50 on SMYD3 [1] (setting [4]) stood at 0.0052 µM; at SMYD3 [2] (setting [5]), 0.0615 µM.

Take `CN1CCC(CS(=O)(=O)N2[C@@H]3CC[C@H]2C[C@@H](NC(=O)c2cc(C4CC4)on2)C3)CC1` [Cpd. No. 770, 5-cyclopropyl-N-((1S,3r,5R)-8-((l-methylpiperidin-4-yl)methylsulfonyl)-8-aza-bicyclo[3.2.1]octan-3-yl)isoxazole-3-carboxamide]: the IC50 came out at 0.00088 µM at SMYD3 [1] (read-out: SMYD3 Biochem IC50*) and 0.0192 µM at SMYD3 [2] (read-out: SMYD3 Cell IC50*).

`N[C@@H](Cc1ccc(O)c(I)c1)C(=O)N1CCC(NC(=O)c2cc(C3CC3)on2)CC1` [compound 5, (S)-N-(1-(2-amino-3-(4-hydroxy-3-iodophenyl)propanoyl)piperidin-4-yl)-5-cyclopropylisoxazole-3-carboxamide]: the IC50 on SMYD3 [1] (setting [3]) was determined as 0.116 µM; on SMYD3 [2] (setting [6]), 0.809 µM.

`NC[C@@H](Cc1ccccc1)C(=O)N1CCC(NC(=O)c2cc(C3CC3)on2)CC1` [compound 10, (R)-N-(1-(3-amino-2-benzylpropanoyl)piperidin-4-yl)-5-cyclopropylisoxazole-3-carboxamide]: the IC50 was 0.319 µM on SMYD3 [1] (setting [3]) and 1.82 µM on SMYD3 [2] (setting [6]).

For the molecule `NC[C@H](Cc1ccc(O)c(I)c1)C(=O)N1CCC(NC(=O)c2cc(C3CC3)on2)CC1` [compound 29, (S)-N-(1-(3-amino-2-(4-hydroxy-3-iodobenzyl)propanoyl)piperidin-4-yl)-5-cyclopropylisoxazole-3-carboxamide], the IC50 at SMYD3 [1] (setting [3]) came to 0.0423 µM; on SMYD3 [2] (setting [6]), 1.1 µM.

With `CC1CN(S(=O)(=O)CCCN)CCC1NC(=O)c1cc(C2CC2)on1` (centres unmarked) [compound 46, N-(1-((3-aminopropyl)sulfonyl)-3-methylpiperidin-4-yl)-5-cyclopropylisoxazole-3-carboxamide], the figures for the IC50 on SMYD3 [1] (setting [3]) and at SMYD3 [2] were 0.119 µM and 1.02 µM, respectively.

Consider `C[C@H]1C[C@H](NC(=O)c2cc(C3CC3)on2)CCN1C(=O)CC1CCNCC1` [compound 56, 5-cyclopropyl-N-((2S,4R)-2-methyl-1-(2-(piperidin-4-yl)acetyl)piperidin-4-yl)isoxazole-3-carboxamide], for which the IC50 at SMYD3 [1] (setting [3]) was 0.172 µM; on SMYD3 [2] (setting [6]), 3.18 µM.

Turning to `C[C@@H]1C[C@H](NC(=O)c2cc(C3CC3)on2)CCN1C(=O)[C@H]1CC[C@H](N)CC1` [compound 57, N-((2R,4R)-1-((1r,4R)-4-aminocyclohexane-1-carbonyl)-2-methylpiperidin-4-yl)-5-cyclopropylisoxazole-3-carboxamide], the IC50 turned out to be 0.0716 µM on SMYD3 [1] (setting [3]) and 0.947 µM at SMYD3 [2] (setting [6]).

For `NC[C@@H](Cc1ccc(O)c(Cl)c1)C(=O)N1CCC(NC(=O)c2cc(C3CC3)on2)CC1` [compound 63, (R)-N-(1-(3-amino-2-(3-chloro-4-hydroxybenzyl)propanoyl)piperidin-4-yl)-5-cyclopropylisoxazole-3-carboxamide], the IC50 is 0.139 µM at SMYD3 [1] (setting [3]) and 1.44 µM on SMYD3 [2] (setting [6]).

For the molecule `C[C@@H]1CN(S(=O)(=O)CCN)CCC1NC(=O)c1cc(C2CC2)on1` (stereo partly drawn) [compound 65, N-((3R)-1-((2-aminoethyl)sulfonyl)-3-methylpiperidin-4-yl)-5-cyclopropylisoxazole-3-carboxamide], the 50% inhibitory concentration (IC50) came to 0.205 µM at SMYD3 [1] (setting [3]) and 1.05 µM on SMYD3 [2] (setting [6]).

With `C[C@H]1CN(S(=O)(=O)CCN)CCC1NC(=O)c1cc(C2CC2)on1` (stereo partly drawn) [compound 66, N-((3S)-1-((2-aminoethyl)sulfonyl)-3-methylpiperidin-4-yl)-5-cyclopropylisoxazole-3-carboxamide], the IC50 at SMYD3 [1] (setting [3]) is 0.59 µM; at SMYD3 [2] (setting [6]), 3.72 µM.
